Source: patent publication US8946436B2, “Oxazolidinone compounds and their uses in preparation of antibiotics” (Sichuan Gooddoctor Pharmaceutical Group Co., Ltd., priority 2011, dated 2015)
Converted amounts (≈) assume the structure as drawn. Where two headings read alike, the source gives them in different places.

Columns and labels:
Type in all cases: cell-based
[1] = test system: S. agalactiae; test: In vitro antibacterial activity (MIC), S. agalactiae; conditions: S. agalactiae (5 strains)
Description: The test strain was inoculated into the liquid medium and cultured at 37° C. for 16-18 h. The culture liquid and MH medium were put into two blank wells of a 96-well plate, respectively. Then, the absorptions thereof were measured by a Microplate reader. The difference between the absorption values of the culture liquid and MH medium is the adsorption of the bacteria. The concentration of the culture liquid can be calculated according to the formula of 1OD=50 million CFU/mL. The culture liquid was diluted with the MH bouillon culture medium to 5000 CFU/mL for further use.
Compounds 12a, 13 and 14 were dissolved in DMSO to 1 mg/mL, and then filtered with a 0.22 μm filter to obtain the compound solutions. And then they were gradually diluted to a desired concentration (10× final concentration) with the liquid medium, so as to obtain a series of dilutions. The final concentration grade of the dilutions of each tested compound consists of 14 concentrations, which includes: 0.03125 μg/mL, […], 0.125 μg/mL, 0.25 μg/mL, […], 1 μg/mL, 2 μg/mL, 4 μg/mL, 8 μg/mL, 16 μg/mL, 32 μg/mL, 64 μg/mL, 128 μg/mL and 256 μg/mL.
10 μL of each of the compound dilutions above was added into a well of a 96-well plate. 90 μL of the culture liquid (5000 CFU/mL) was added into each of the wells, respectively, mixed with the dilutions to render the tested compound concentration to the final concentration. The resulted mixture was incubated at 37° C. for 16-18 h, and then the OD630 thereof was measured. A culture liquid free of the tested compounds is used as a blank control, and three parallel tests with the same concentration of each compound were performed. The minimum inhibitory concentration (MIC) of each compound on the standard strain of Staphylococcus Aureus and other test strains was determined. Specifically, among the culture liquid contained in the wells of the micro-plate, the first three lowest concentrations under which growth of the test strains could be observed were chose for further evaluation of the MIC. A culture liquid free of tested compounds was used as a blank control. Each of the culture liquids was homogenized independently, and then was diluted with a sterile saline. Each of the diluted culture liquids was plated onto a MH bouillon plate and incubated at 37° C. for 20 h in incubator. After the incubation, the number of the colonies on each plate was counted. As compared with the blank control group, the lowest concentration of each of the test compound groups, at which 80% reduction in the colony number of the strains was achieved, was recorded as the MIC.

[2] = test system: Streptococcus agalactiae; test: MIC against clinically isolated strains, Streptococcus agalactiae; conditions: Streptococcus agalactiae (17 strains)
Excerpt: (§1) Standard strains, including Staphylococcus aureus ATCC29213, S. pneumoniae ATCC49619, E. faecalis ATCC29212, are all available from the American Type Culture Collection.
(§2) Clinically isolated strains: There are total 120 clinical strains of gram-positive bacterium including: 37 strains of Staphylococcus aureus (consisting of 14 strains of methicillin sensitive Staphylococcus aureus MSSA and 23 strains of methicillin resistant Staphylococcus aureus MRSA); 27 strains of Streptococcus pneumoniae (consisting of 13 strains of penicillin sensitive Streptococcus pneumoniae PSSP and 14 strains of penicillin insensitive or resistant Streptococcus pneumoniae PISP+PRSP); 15 strains of Streptococcus pyogenes; 17 strains of Streptococcus agalactiae; 24 stains of Enterococcus faecium (consisting of 12 strains of vancomycin sensitive Enterococcus faecium and 12 strains of vancomycin resistant Enterococcus faecium).
(§3) (2) Tested compounds: Compound 13f was prepared by the methods above, with potency of over 98%; Linezolid was purchased from Pfizer, with potency of 100%.
(§4) Staphylococcus and Enterococcus faecium were incubated in Mueller-Hinton agar medium (MHA medium) at 35° C. for 16-20 h; S. pneumoniae was incubated in Cation-Adjusted Mueller-Hinton Broth medium (CAMHB medium) supplemented with 2.5-5.5% (v/v) lysed horse blood (LHB) at 35° C. for 20-24 h; and Streptococcus were incubated in sheep blood-containing medium (prepared by addition of 5% defibrinated sheep blood into MHA media) at 35° C. for 20-24 h in 5% CO2 environment (CO2 incubator). Before test of the compound activity, each stock of the bacteria strains was activated and colonized in the following manner: the stock was transferred and cultured in a liquid culture medium, the culture liquid was smeared onto an agar plate with an inoculating loop to obtain bacterial colonies on the plate after incubation, and then a colony of the bacteria was chose to be suspended into the liquid culture medium for performing the test of compound activity. As a result, fresh bacteria cells were applied to the test. The standard strains were used as sensitive bacterium to control the quality of the experiments, and a plate or tube containing no antibacterial compounds is used as a blank control for the growth of test strains.
(§5) The minimal inhibitory concentration (MIC) of the test compounds on the strains of Streptococcus pneumoniae was determined by a standard broth macrodilution method, while the MIC of the test compounds on the other bacteria stains was determined by standard agar double dilution methods. The concentration of the test compounds was in the range of 32 mg/L-0.016 mg/L. The bacterial suspensions to be tested were inoculated by a multipoint inoculator, and the inoculation amount at each point is 10^4 CFU. The MIC of the test compound to each strain of the bacteria was determined.

[3] = test system: Enterococcus faecium-sensitive vancomycin; test: MIC against clinically isolated strains, vancomycin sensitive Enterococcus faecium; conditions: Enterococcus faecium-sensitive vancomycin (12 strains)
Excerpt: as §1, §2, §3, §4, §5

[4] = test system: HEK-293; test: Cytotoxicity experiment (MTT), HEK-293; conditions: HEK-293 normal cells
Description: (1) Inoculating cells: Experimental cells in the growth of logarithmic phase were collected and suspended. The cell concentration of the suspension was adjusted so that they could be inoculated into the wells of 96-well micro plate at a density between 10^3-10^4 cells per well (200 μl per well). (2) Culturing cells: The cells were cultured at normal conditions for 3 days and then exposed to 50 uM compounds for test. (3) Coloring reaction: At 24 h, 48 h and 72 h after the cells being exposed to the compounds for test, 200 μl culture medium containing 20 μl MTT solution (5 mg/ml) was added into each well, and the well was further incubated at 37° C. for 2 hours to terminate the incubation. After the incubation, the supernatants were removed from the wells. In the event there were suspended cells in the wells, centrifugation should be performed before removal of supernatant from the wells. After the removal, 150 μl DMSO was added to each well and mixed thoroughly by agitation for 10 mins to fully dissolve crystals. (4) Ascertainment of colorimetry: The absorbance value at 490 nm of each well was determined by Enzyme-linked immunosorbent Monitor. The growth curve of the experimental cells was plotted by taking time as x-coordinate and absorbance value as y-coordinate. In addition, an inhibition ratio could be calculated in accordance with the following formula: Inhibition ratio=(absorbance value of control group-absorbance value of administering group)/absorbance value of control group×100%.

SMILES | MIC ([1]; Streptococcus agalactiae, read-out: MIC) [ng/mL] | MICmode [2] [µg/L] | MICrange [2] [µg/L] | MICmode [3] [µg/L] | MICrange [3] [µg/L] | cytotoxicity at 50 µM ([4]; Homo sapiens, HEK293, 48 h, read-out: Inhibition ratio) [%] | MIC [1] [ng/mL] | MIC50 [2] [ng/mL] | MIC90 [2] [ng/mL] | MIC50 [3] [ng/mL] | MIC90 [3] [ng/mL] | Inhibition ratio ([4]; 50 uM, 48 h) [%]
CC(=O)NC[C@H]1CN(c2ccc(-n3cc(-c4ccccn4)cn3)c(F)c2)C(=O)O1 [Compound 13f, (S)-N-((3-(3-fluoro-4-(4-(pyridin-2-yl)-1H-pyrazol-1-yl)phenyl)-2-oxooxazolidin-5-yl)methyl)acetamide] | 250 to 2000 (≈ 632 to 5060 nM) | 1 | 0.5 to 1 | 1 | 1 to 2 | 2.7 |  |  |  |  |  | 
CC(=O)NC[C@H]1CN(c2ccc(N3CCOCC3)c(F)c2)C(=O)O1 [Linezolid, reference compound] |  | 1 | 0.5 to 1 | 1 | 1 to 2 |  | 4000 to 32000 | 1 (≈ 2.96 nM) | 1 (≈ 2.96 nM) | 1 (≈ 2.96 nM) | 1 (≈ 2.96 nM) | >50
